Legend:
[1] = Oxygen Radical Absorbance capacity (ORAC) assay; format: biochemical; conditions: 1/100 dilution of stock solutions; FIG. 1a
Procedure: Those figures depict graphical comparison of the antioxidant values of momordica cochichinchinensis (gac) aril, β-carotene, and lycopene using […] (ORAC) assay, ORAC values were obtained using a Trolox standard linear regression line.
(§1) Antioxidant capacities were assessed by the overall abilities of the compounds to suppress peroxyl radicals generated from the thermal homolysis of 2,2′-azobis-amidinopropane. Stock solutions of all samples were diluted 1/100 and 1/1000. […] However, at a lower concentration (dilution of 1/1000), the gac aril provided the highest peroxyl radical-scavenging capacity, 1.8 and 1.3 times as much as β-carotene and lycopene, respectively (FIG. 1b).

[2] = Total Oxygen radical Scavenging Capacity (TOSC) assay; format: biochemical; conditions: for total antioxidant activities, times higher than Trolox: in momordica cochinchinensis aril; for antioxidant capacity, higher than Trolox: in the gac oil
Procedure: as §1
Using the TOSC method, it was apparent that total antioxidant activities of beta-carotene and lycopene in momordica cochinchinensis aril were high (2 times higher than Trolox), an analogue of Vitamin E commonly used a gold standard. The comparative TOSC values (cTOSC) of gac (Redmelon™) aril maintains 5.4 times greater than Trolox. […] The results are summarized below in the following table

Row | SMILES | ability to scavenge peroxyl radicals, times as much as the Redmelon™ aril [1] | ability to scavenge peroxyl radicals, times as much as β-carotene [1] | total antioxidant activities, times higher than Trolox ([2]; relative to Trolox) | antioxidant capacity, higher than Trolox ([2]; relative to Trolox) | peroxyl radical scavenging capacity (rTOSC), times greater than Trolox ([2]; relative to Trolox) | cTOSC ([2]; comparative TOSC value) | rTOSC ([2]; peroxyl radical scavenging capacity)
1 | CC(C)=CCC/C(C)=C/C=C/C(C)=C/C=C/C(C)=C/C=C/C=C(C)/C=C/C=C(C)/C=C/C=C(\C)CCC=C(C)C [lycopene] | 1.4 times | 2.4 times | 2 times | 50% | 24 times |  | 
2 | Cc1c(C)c2c(c(C)c1O)CCC(C)(C(=O)O)O2 (stereo not drawn) [Trolox] |  |  |  |  |  | 1.00 | 4.51
3 | CC1=C(/C=C/C(C)=C/C=C/C(C)=C/C=C/C=C(C)/C=C/C=C(C)/C=C/C2=C(C)CCCC2(C)C)C(C)(C)CCC1 [beta-carotene] |  |  | 2 times | 50% |  |  | 
